Results published in paper PMC6409085, “Three odorant-binding proteins are involved in the behavioral response of Sogatella furcifera to rice plant volatiles” (PeerJ, 2019).
Several values for one entry are separate records, joined by “and”; a condition that tells them apart may be missing. Equal values may be shown once.

Legend:
Experiment in all cases: biochemical
Assay type in all cases: binding
[1] = biological target: SfurOBP1 (Sogatella furcifera, UniProt V5T8N5); details: for Fluorescence competitive binding assay, fluorescence intensity: OBP1, three replicate columns
Sequence of SfurOBP1 (V5T8N5 entry or part of it): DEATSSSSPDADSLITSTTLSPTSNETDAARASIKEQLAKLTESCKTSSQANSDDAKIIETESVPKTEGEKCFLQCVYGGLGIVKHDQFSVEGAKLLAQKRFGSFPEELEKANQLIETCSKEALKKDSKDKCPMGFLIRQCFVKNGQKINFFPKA
In short: (§1)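 1-NPN displacement assay with odorant competitor at 2–20 µM; protein and probe both 2.0 µM at pH 7.4. Ki is calculated from IC50 using the protein/1-NPN dissociation constant.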

[2] = biological target: SfurOBP3 (Sogatella furcifera, UniProt V5T818); details: for Fluorescence competitive binding assay, fluorescence intensity: OBP3, three replicate columns
Sequence of SfurOBP3 (V5T818 entry or part of it): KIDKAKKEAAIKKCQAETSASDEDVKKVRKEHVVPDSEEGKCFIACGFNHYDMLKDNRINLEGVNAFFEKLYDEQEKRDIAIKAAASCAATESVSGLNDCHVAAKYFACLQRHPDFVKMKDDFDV
In short: as §1

[3] = biological target: SfurOBP11 (Sogatella furcifera, UniProt V5T6E3)
Sequence of SfurOBP11 (V5T6E3 entry or part of it): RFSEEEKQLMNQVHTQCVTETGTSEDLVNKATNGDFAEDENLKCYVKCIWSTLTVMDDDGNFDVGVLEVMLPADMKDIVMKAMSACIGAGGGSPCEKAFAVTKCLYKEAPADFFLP
In short: as §1

[4] = biological target: SfurOBP2 (Sogatella furcifera, UniProt V5T759)
Sequence of SfurOBP2 (V5T759 entry or part of it): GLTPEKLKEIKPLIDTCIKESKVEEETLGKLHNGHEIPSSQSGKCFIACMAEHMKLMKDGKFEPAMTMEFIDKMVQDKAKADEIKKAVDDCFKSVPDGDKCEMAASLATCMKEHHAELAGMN
In short: as §1

In the case of `C/C(=C\CO)CCC[C@H](C)CCC[C@H](C)CCCC(C)C` [plant alcohol], the “Fluorescence competitive binding assay, fluorescence intensity” value ([1]; ligand concentration 2 (μM)) is reported as 7330 and 7109 and 7550, the “Fluorescence competitive binding assay, fluorescence intensity” value ([1]; ligand concentration 4 (μM)) is reported as 7885 and 9070 and 8350 and the “Fluorescence competitive binding assay, fluorescence intensity” value ([1]; ligand concentration 6 (μM)) is reported as 9355 and 9996 and 9183. The “Fluorescence competitive binding assay, fluorescence intensity” value ([1]; ligand concentration 8 (μM)) was 11640 and 10265 and 9349, the “Fluorescence competitive binding assay, fluorescence intensity” value ([1]; ligand concentration 10 (μM)) was 10389 and 10452 and 10917 and the “Fluorescence competitive binding assay, fluorescence intensity” value ([1]; ligand concentration 12 (μM)) was 10679 and 10989 and 10151. The “Fluorescence competitive binding assay, fluorescence intensity” value ([1]; ligand concentration 14 (μM)) was 12105 and 10979 and 11552, the “Fluorescence competitive binding assay, fluorescence intensity” value ([1]; ligand concentration 16 (μM)) was 10141 and 15672 and 8010 and the “Fluorescence competitive binding assay, fluorescence intensity” value ([1]; ligand concentration 18 (μM)) was 13868 and 12649 and 12554. For the same compound, the “Fluorescence competitive binding assay, fluorescence intensity” value ([1]; ligand concentration 20 (μM)) was 12803 and 13119 and 10975, the IC50 ([1]; SfurOBP1, protein and 1-NPN both 2.0 µM, competitor 2-20 µM, read-out: IC50) was over 20 µM and the “Fluorescence competitive binding assay, fluorescence intensity” value ([2]; ligand concentration 2) was 81785 and 76872 and 83999. For the same compound, the “Fluorescence competitive binding assay, fluorescence intensity” value ([2]; ligand concentration 4) was 101881 and 87909 and 87470, the “Fluorescence competitive binding assay, fluorescence intensity” value ([2]; ligand concentration 6) was 71457 and 61006 and 51881 and the “Fluorescence competitive binding assay, fluorescence intensity” value ([2]; ligand concentration 8) was 71819 and 64171 and 69972. For the same compound, the “Fluorescence competitive binding assay, fluorescence intensity” value ([2]; ligand concentration 10) was 63459 and 67080 and 84824, the “Fluorescence competitive binding assay, fluorescence intensity” value ([2]; ligand concentration 12) was 64327 and 73125 and 73637 and the “Fluorescence competitive binding assay, fluorescence intensity” value ([2]; ligand concentration 14) was 85412 and 71741 and 71210. The “Fluorescence competitive binding assay, fluorescence intensity” value ([2]; ligand concentration 16) was 78313 and 80279 and 70309, the “Fluorescence competitive binding assay, fluorescence intensity” value ([2]; ligand concentration 18) was 77162 and 77902 and 55555 and the “Fluorescence competitive binding assay, fluorescence intensity” value ([2]; ligand concentration 20) was 68113 and 75065 and 101895. The IC50 ([2]; SfurOBP3, protein and 1-NPN both 2.0 µM, competitor 2-20 µM, read-out: IC50) was over 20 µM, the IC50 ([3]; SfurOBP11, protein and 1-NPN both 2.0 µM, competitor 2-20 µM, read-out: IC50) was 3.5 µM and the “Fluorescence intensity, fluorescence competitive binding assay, OBP11” value (shortened to “Fluorescence intensity … OBP11”) ([3]; ligand concentration 2, replicate 1) was 16266. The “Fluorescence intensity … OBP11” value ([3]; ligand concentration 2, replicate 2) was 15087, the “Fluorescence intensity … OBP11” value ([3]; ligand concentration 2, replicate 3) was 17001 and the “Fluorescence intensity … OBP11” value ([3]; ligand concentration 4, replicate 1) was 17687. The “Fluorescence intensity … OBP11” value ([3]; ligand concentration 4, replicate 2) was 17526, the “Fluorescence intensity … OBP11” value ([3]; ligand concentration 4, replicate 3) was 17848 and the “Fluorescence intensity … OBP11” value ([3]; ligand concentration 6, replicate 1) was 16356. The “Fluorescence intensity … OBP11” value ([3]; ligand concentration 6, replicate 2) was 18409, the “Fluorescence intensity … OBP11” value ([3]; ligand concentration 6, replicate 3) was 17383 and the “Fluorescence intensity … OBP11” value ([3]; ligand concentration 8, replicate 1) was 17184. For the same compound, the “Fluorescence intensity … OBP11” value ([3]; ligand concentration 8, replicate 2) was 18342, the “Fluorescence intensity … OBP11” value ([3]; ligand concentration 8, replicate 3) was 18652 and the “Fluorescence intensity … OBP11” value ([3]; ligand concentration 10, replicate 1) was 18889. For the same compound, the “Fluorescence intensity … OBP11” value ([3]; ligand concentration 10, replicate 2) was 17441, the “Fluorescence intensity … OBP11” value ([3]; ligand concentration 10, replicate 3) was 20338 and the “Fluorescence intensity … OBP11” value ([3]; ligand concentration 12, replicate 1) was 19011. The “Fluorescence intensity … OBP11” value ([3]; ligand concentration 12, replicate 2) was 18892, the “Fluorescence intensity … OBP11” value ([3]; ligand concentration 12, replicate 3) was 20835 and the “Fluorescence intensity … OBP11” value ([3]; ligand concentration 14, replicate 1) was 21007. For the same compound, the “Fluorescence intensity … OBP11” value ([3]; ligand concentration 14, replicate 2) was 21377, the “Fluorescence intensity … OBP11” value ([3]; ligand concentration 14, replicate 3) was 20817 and the “Fluorescence intensity … OBP11” value ([3]; ligand concentration 16, replicate 1) was 23140. The “Fluorescence intensity … OBP11” value ([3]; ligand concentration 16, replicate 2) was 21703, the “Fluorescence intensity … OBP11” value ([3]; ligand concentration 16, replicate 3) was 22422 and the “Fluorescence intensity … OBP11” value ([3]; ligand concentration 18, replicate 1) was 27356. The “Fluorescence intensity … OBP11” value ([3]; ligand concentration 18, replicate 2) was 26038, the “Fluorescence intensity … OBP11” value ([3]; ligand concentration 18, replicate 3) was 25306 and the “Fluorescence intensity … OBP11” value ([3]; ligand concentration 20, replicate 1) was 26659. For the same compound, the “Fluorescence intensity … OBP11” value ([3]; ligand concentration 20, replicate 2) was 25183, the “Fluorescence intensity … OBP11” value ([3]; ligand concentration 20, replicate 3) was 25906 and the IC50 ([4]; SfurOBP2, protein and 1-NPN both 2.0 µM, competitor 2-20 µM, read-out: IC50) was over 20 µM. For the same compound, the “Fluorescence competitive binding assay, OBP2 (raw fluorescence reading)” value ([4]; ligand concentration 2 (unit not given), replicate column 1 of 3) was 15935, the “Fluorescence competitive binding assay, OBP2 (raw fluorescence reading)” value ([4]; ligand concentration 2 (unit not given), replicate column 2 of 3) was 15877 and the “Fluorescence competitive binding assay, OBP2 (raw fluorescence reading)” value ([4]; ligand concentration 2 (unit not given), replicate column 3 of 3) was 16010. The “Fluorescence competitive binding assay, OBP2 (raw fluorescence reading)” value ([4]; ligand concentration 4 (unit not given), replicate column 1 of 3) was 16483, the “Fluorescence competitive binding assay, OBP2 (raw fluorescence reading)” value ([4]; ligand concentration 4 (unit not given), replicate column 2 of 3) was 17483 and the “Fluorescence competitive binding assay, OBP2 (raw fluorescence reading)” value ([4]; ligand concentration 4 (unit not given), replicate column 3 of 3) was 15472. For the same compound, the “Fluorescence competitive binding assay, OBP2 (raw fluorescence reading)” value ([4]; ligand concentration 6 (unit not given), replicate column 1 of 3) was 19539, the “Fluorescence competitive binding assay, OBP2 (raw fluorescence reading)” value ([4]; ligand concentration 6 (unit not given), replicate column 2 of 3) was 15243 and the “Fluorescence competitive binding assay, OBP2 (raw fluorescence reading)” value ([4]; ligand concentration 6 (unit not given), replicate column 3 of 3) was 16407. For the same compound, the “Fluorescence competitive binding assay, OBP2 (raw fluorescence reading)” value ([4]; ligand concentration 8 (unit not given), replicate column 1 of 3) was 19867, the “Fluorescence competitive binding assay, OBP2 (raw fluorescence reading)” value ([4]; ligand concentration 8 (unit not given), replicate column 2 of 3) was 20728 and the “Fluorescence competitive binding assay, OBP2 (raw fluorescence reading)” value ([4]; ligand concentration 8 (unit not given), replicate column 3 of 3) was 17103. For the same compound, the “Fluorescence competitive binding assay, OBP2 (raw fluorescence reading)” value ([4]; ligand concentration 10 (unit not given), replicate column 1 of 3) was 20161, the “Fluorescence competitive binding assay, OBP2 (raw fluorescence reading)” value ([4]; ligand concentration 10 (unit not given), replicate column 2 of 3) was 19779 and the “Fluorescence competitive binding assay, OBP2 (raw fluorescence reading)” value ([4]; ligand concentration 10 (unit not given), replicate column 3 of 3) was 18765. The “Fluorescence competitive binding assay, OBP2 (raw fluorescence reading)” value ([4]; ligand concentration 12 (unit not given), replicate column 1 of 3) was 19327, the “Fluorescence competitive binding assay, OBP2 (raw fluorescence reading)” value ([4]; ligand concentration 12 (unit not given), replicate column 2 of 3) was 19917 and the “Fluorescence competitive binding assay, OBP2 (raw fluorescence reading)” value ([4]; ligand concentration 12 (unit not given), replicate column 3 of 3) was 19157. For the same compound, the “Fluorescence competitive binding assay, OBP2 (raw fluorescence reading)” value ([4]; ligand concentration 14 (unit not given), replicate column 1 of 3) was 20768, the “Fluorescence competitive binding assay, OBP2 (raw fluorescence reading)” value ([4]; ligand concentration 14 (unit not given), replicate column 2 of 3) was 19570 and the “Fluorescence competitive binding assay, OBP2 (raw fluorescence reading)” value ([4]; ligand concentration 14 (unit not given), replicate column 3 of 3) was 20399. The “Fluorescence competitive binding assay, OBP2 (raw fluorescence reading)” value ([4]; ligand concentration 16 (unit not given), replicate column 1 of 3) was 18977, the “Fluorescence competitive binding assay, OBP2 (raw fluorescence reading)” value ([4]; ligand concentration 16 (unit not given), replicate column 2 of 3) was 19385 and the “Fluorescence competitive binding assay, OBP2 (raw fluorescence reading)” value ([4]; ligand concentration 16 (unit not given), replicate column 3 of 3) was 18242. The “Fluorescence competitive binding assay, OBP2 (raw fluorescence reading)” value ([4]; ligand concentration 18 (unit not given), replicate column 1 of 3) was 20374, the “Fluorescence competitive binding assay, OBP2 (raw fluorescence reading)” value ([4]; ligand concentration 18 (unit not given), replicate column 2 of 3) was 20001 and the “Fluorescence competitive binding assay, OBP2 (raw fluorescence reading)” value ([4]; ligand concentration 18 (unit not given), replicate column 3 of 3) was 19071. For the same compound, the “Fluorescence competitive binding assay, OBP2 (raw fluorescence reading)” value ([4]; ligand concentration 20 (unit not given), replicate column 1 of 3) was 20399, the “Fluorescence competitive binding assay, OBP2 (raw fluorescence reading)” value ([4]; ligand concentration 20 (unit not given), replicate column 2 of 3) was 20700 and the “Fluorescence competitive binding assay, OBP2 (raw fluorescence reading)” value ([4]; ligand concentration 20 (unit not given), replicate column 3 of 3) was 18461.
